Test results taken from US20200121620A1, “SENOLYTIC COMPOUNDS” (UNITED KINGDOM RESEARCH AND INNOVATION, priority 2017, published 2020).

Legend:
[1] = tested on: senescent human fibroblasts; settings: Lui et al, Sci Rep 2015; cited from earlier work
IMR90 ER:RAS cells = assay: Senolytic activity in IMR90 ER:RAS cells undergoing oncogene-induced senescence (4OHT) vs DMSO-treated non-senescent cells; settings: 4OHT vs DMSO; FIG. 11
Protocol: FIG. 1: (A) IMR90 ER:RAS cells were induced to undergo senescence by treating them with 100 nM 4OHT for 6 days. At that point, 10 μM of the indicated drugs was added. In parallel, the same treatments were carried out in IMR90 ER:RAS cells treated with DMSO (−4OHT). […] Cells were fixed at day 6, 8 and 10 after 4OHT induction and stained with crystal violet to assess cell viability. T, Tyr-AG879; P, PF-573228; C, Cyclosporine. (B) A similar experiment to (A) was conducted and cells at day 10 post-induction were fixed and stained with DAPI to assess cell numbers
In the setup used, IMR90 ER:RAS cells were treated with 100 nM 4OHT to induce OIS (oncogene induced senescence) and activate the ER:RAS fusion protein. 6 days after 4OHT induction (+4OHT), once cells were fully senescent, the agents to be tested were added at a concentration of 10 μM, and cell numbers were assessed 4 days after by DAPI stained couple to automated microscopy. Alternatively, cells were fixed and stained with crystal violet. In parallel, the same treatments were carried out in IMR90 ER:RAS cells treated with DMSO (−4OHT).
IMR90 ER:RAS cells were induced to undergo senescence by treating them with 100 nM 4OHT for 6 days. At that point, 10 μM of the indicated drugs was added. In parallel, the same treatments were carried out in IMR90 ER:RAS cells treated with DMSO (−4OHT). […] Cells were fixed at day 6, 8 and 10 after 4OHT induction and stained with crystal violet to assess cell viability. A similar experiment was conducted and cells at day 10 post-induction were fixed and stained with DAPI to assess cell numbers (see FIG. 1).
IMR90 ER:RAS E6/E7 cells = assay: Killing of IMR90 ER:RAS E6/E7 cells (RAS signalling without senescence); assay type: cell-based, human; settings: 1, 5 and 10 μM; 4OHT vs DMSO; FIG. 5
Protocol: In these experiments the compounds were tested side by side with a control ABT-263 (the de facto gold standard senolytic compound) (Chang et al., 2016; Yosef et al., 2016; Zhu et al., 2016). Experiments were conducted to test the ability of the compounds to behave as senolytics during OIS (using IMR90 ER:RAS, FIG. 3 and HMEC hTERT ER:RAS, FIG. 4). […] To understand whether the selective killing of senescent IMR90 ER:RAS was a consequence of senescence induction or of activation of RAS signaling, experiments were conducted in isogenic IMR90 ER:RAS E6/E7 cells. In these cells, RAS signalling is induced by adding 100 nM 4OHT that activates the ER:RAS fusion protein. However, expression of the E6/E7 protein prevents senescence induction.

[2] = tested on: senescent cells in the lung; assay: Elimination of senescent cells induced by whole body irradiation in mice; assay type: in vivo; settings: 6 Gray whole body irradiation; 2 months later treated for 4 consecutive days; FIG. 16
Source text: (A) Experimental set up, mice (n=5 per group) were irradiated with 6 Gray to induce senescence. […] (B) Cryosections of lungs obtained from control and irradiated mice were stained with hematoxilin and eosin (to reveal tissue architecture), and SA-β-Gal (to reveal senescent cells). Senescent cells accumulate in the bronchioles of irradiated mice. (C) Quantification of the lung area positive for SA-β-Gal staining. […] (D). Representative pictures of lung cryosections.
Whole-body irradiation is known to cause senescence. In irradiated mice, senescent cells accumulate in different tissues, including the lung (Chang et al., 2016; Yosef et al., 2016).

SMILES	senescence-associated secretory phenotype (SASP) [1]	senolytic effect of statins, preferential killing of cells undergoing OIS (IMR90 ER:RAS cells)	selectivity for killing IMR90 ER:RAS E6/E7 (IMR90 ER:RAS E6/E7 cells)	lung area positive for SA-β-Gal staining (senescent cells) [2]
CCC(C)(C)C(=O)O[C@H]1C[C@@H](C)C=C2C=C[C@H](C)[C@H](CC[C@@H]3C[C@@H](O)CC(=O)O3)[C@H]21 [Simvastatin]	decrease the senescence-associated secretory phenotype (SASP)	behaves as a senolytic in a concentration dependent manner		
c1ccc2c(c1)[IH]c1ccccc1-2 [Diphenyleneiodonium chloride]			displayed selectivity for killing IMR90 ER:RAS E6/E7	partially eliminated
